Results as given in US8642654B2, “Hydroxybutyrate ester and medical use thereof” (ISIS Innovation Limited, priority 2011, dated 2014).
Entries after “also recorded” stand apart in the source; their conditions may differ. Marks after values point to notes of the source that are not given here.

Columns and labels:
[1] = tested on: Brain Derived Neurotropic Factor (BDNF); assay: Neuropeptide levels in sectioned rat brain by antibody techniques: BDNF; type: in vivo; conditions: rat hypothalamus, ketone diet
Experimental: (§1) In a 14-day study, Wistar rats weighing about 250 g were randomized to one of three diet groups (n=6 rats/group) and administered either a carbohydrate (“starch”) diet, a normal human (“fat”) diet or a ketone ester diet, in which the ketone ester used was the ketone monoester (3R)-hydroxybutyl (3R)-hydroxybutyrate diet (i.e. the compound of the invention). The three diets were eaten in pair fed meals for 3 hours per day. The composition of the diets expressed in terms of g/100 g are summarised in Table 5 and the compositions expressed in terms of % of calories are summarised in Table 6. After 14 days of feeding with the fat, carbohydrate or ketone ester diet, the levels of various neuropeptides known to be associated with decreased food intake and decreased appetite (“anorexigenic” peptides) were surveyed in the paraventricular nucleus (PVN) area of the hypothalamus and in the hippocampus of the rat brain. The neuropeptide levels were measured using standard antibody techniques performed on sectioned brains of the rats. The results are shown in the micrographs of FIGS. 3 to 9. The peptides measured were Brain Derived Neurotropic Factor (BDNF), melanocyte-stimulating hormone receptor 4 (MC4R), and Cocaine-and-Amphetamine Responsive Transcript (CART). […]

[2] = tested on: melanocyte-stimulating hormone receptor 4 (MC4R); assay: Neuropeptide levels in sectioned rat brain by antibody techniques: MC4R; type: in vivo; conditions: rat hypothalamus, 14 days ketone diet
Experimental: as §1

[3] = tested on: free nucleotide ratios and concentrations in the brain; assay: Calculated free nucleotide ratios and concentrations in freeze blown brain after 14 days of diet; type: in vivo, Wistar rats
Experimental: (§2) In a 14-day study, Wistar rats weighing about 250 g were randomized to one of three diet groups (n=6 rats/group) and administered either a carbohydrate (“starch”) diet, a normal human (“fat”) diet or a ketone ester diet, in which the ketone ester used was the ketone monoester (3R)-hydroxybutyl (3R)-hydroxybutyrate diet (i.e. the compound of the invention). The three diets were eaten in pair fed meals for 3 hours per day. The composition of the diets expressed in terms of g/100 g are summarised in Table 5 and the compositions expressed in terms of % of calories are summarised in Table 6.
After the rats were fed on the diets for 14 days, the ratios of free nucleotide and the free nucleotide concentrations were determined. Measurements were performed on the freeze blown brain and metabolite ratios of the rats calculated as previously described (Veech, R. L. et al, J. Biol. Chem. 254:6538-47, 1979). The values in Table 8 are given as means±SEM (n=6 to 8). Cytosolic pH was assumed to be 7.2.

[4] = 14-day pair fed meal diets: food consumption and weight gain (Example 5); type: in vivo, Wistar rats; conditions: rats, 14-day study
Experimental: as §2

[5] = tested on: Krebs cycle and CoA intermediates in the brain; assay: Brain Krebs cycle and CoA intermediates after 14 days of diet; type: in vivo, Wistar rats; conditions: rat brain
Experimental: In a 14-day study, Wistar rats weighing about 250 g were randomized to one of three diet groups (n=6 rats/group) and administered either a carbohydrate (“starch”) diet, a normal human (“fat”) diet or a ketone ester diet, in which the ketone ester used was the ketone monoester (3R)-hydroxybutyl (3R)-hydroxybutyrate diet (i.e. the compound of the invention). The three diets were eaten in pair fed meals for 3 hours per day. The composition of the diets expressed in terms of g/100 g are summarised in Table 5 and the compositions expressed in terms of % of calories are summarised in Table 6. After eating the 3 diets in pair fed meals for 3 hours per day for 14 days, the levels of various Krebs cycle and CoA intermediates in the brain were measured enzymatically and by mass spectrometry using standard techniques. […] Malonyl CoA is a metabolite known to be associated with decreased food intake; it is known to decrease appetite (Wolfgang, M. J. and Lane, M. D. (2006) J. Biol. Chem. 281, 37265-37269). […] The values in Table 7 are means, in μmoles/g wet weight, ±SEM with n=6 to 8. CoA's are given in nmol/g wet weight.

[6] = In vivo testing, calorie-controlled diets, 66 days (Example 2); parameters: species or system Wistar rats
Experimental: Young adult male Wistar rats (starting weight 70 g) (Harlan UK Limited) (n=50) were housed at approximately 20° C. on a 12h:12h reverse light:dark photoperiod. Rats were fed standard laboratory chow (Chow) (SDS, Essex, UK) prior to the starting the experimental diets: (a) normal “Western” diet (Western) in which 34% of kilocalories came from added palmitate (n=20), (b) high-carbohydrate (CHO) in which 70% of kilocalories came from added corn starch (n=10) or (c) (3R)-hydroxybutyl (3R)-hydroxybutyrate diet (monoester) in which 30% of kilocalories came from (3R)-hydroxybutyl (3R)-hydroxybutyrate (n=20). The macronutrient compositions of the three diets are shown below. All diets contained the same energy in kCal/g but had different macronutrients. Rats were individually housed one week prior to the start of the experiments, so that they were accustomed to living in a solitary environment by the time the study started. They consumed standard laboratory chow ad libitum until they were placed on their experimental diet. Rats fed the Western and carbohydrate diets were fed the same number of calories as those consumed by the monoester-fed rats the previous day. All rats were fed for 66 days. After this period the rat body, heart and fat pad weights were determined.

[7] = 28-day study, isonitrogenous and isocaloric diets (Example 4); type: in vivo, Wistar rats; conditions: for total amount of weight gained compared with CHOD and NHD groups: 28-day study; for feed intake during days 22 to 29: KD; for body weight on day 28: KD group
From the text: In a 28-day study, male and female Wistar rats weighing approximately 350 g were randomized to one of three diet groups (n=10 males and 10 females/group) and administered either a carbohydrate diet (CHOD), a normal human diet (NHD), or a ketone diet (KD). The diets were isonitrogenous and isocaloric, differing only in their relative amounts of carbohydrate, fat, and ketones. In the KD, the ketone used was the ketone monoester (3R)-hydroxybutyl (3R)-hydroxybutyrate diet (i.e. the compound of the invention). In the KD, approximately ⅓ of the energy was derived from the ketone ester, while in the NHD and CHOD, ⅓ of the energy was derived from palmitate and starch, respectively.

[8] = Blood levels of (3R)-hydroxybutyrate after oral ingestion; type: in vivo; conditions: ingested orally
[9] = In vivo testing, meal-fed diets (Example 3); conditions: meal-fed rats, n=8 per group
From the text: Example 2 was repeated using the same foods as shown in Table 1 but where the rats were meal-fed. […] The daily body weight (in grams per rat per day) was plotted against time for rats in each of the three diet groups over the first six days of the test. One-way analysis of variance with Tukey-Kramer multiple comparison test was used (n=8 per group, **p<0.001). […] The body weight of rats in the group fed the carbohydrate diet remained high throughout the feeding process. […] The daily food intake (in grams per rat per day) was plotted against time for rats in each of the three diet groups over the first seven days of the test. Again, one-way analysis of variance with Tukey-Kramer multiple comparison test was used (n=8 per group, ***p<0.001).

[10] = tested on: Cocaine-and-Amphetamine Responsive Transcript (CART); assay: Neuropeptide levels in sectioned rat brain by antibody techniques: CART; type: in vivo; conditions: 14 days ketone diet
Experimental: as §1

[11] = rat brain, 14 days ketone ester diet, mean ± SEM
[12] = rat brain, 14 days ketone ester diet, mean ± SEM, p < 0.05 vs starch and vs fat
[13] = 14 days ketone ester diet, mean ± SEM
[14] = rats, monoester diet, 66 days, n = 20

## C[C@@H](O)CCOC(=O)C[C@@H](C)O [Monoester, (3R)-hydroxybutyl (3R)-hydroxybutyrate]
[1]
  BDNF-positive cell bodies in the paraventricular nucleus (PVN), compared to fat and carbohydrate diets (FIG. 3): significantly more; also recorded: more BDNF; also recorded: significantly greater number
[2]
  MC4R positive cell bodies in pm and mpd regions of the PVN, compared to fat diet (FIGS. 4 and 5): significantly higher density; also recorded: more MC4R activity; also recorded: Significantly greater numbers; also recorded: significantly denser area
[3]; after 14 days of diet
  brain phosphorylation potential compared with carbohydrate and fat diets: significantly higher
  ΔG′ of ATP hydrolysis compared with carbohydrate and fat diets: significantly higher
[3]; [11]
  EhCoQ/CoQH2 from Fum/Succ: 28.9 ± 0.6 mV
  Free [ADP] cytosol from PCr/Cr: 0.027 ± 0.001 µM/g
  Free [AMP] cytosol from Kmyokinase: 0.0004 ± 0.00003 µM/g
  Free [Mg^2+] from [Cit]/[Isocit]: 1.5 ± 0.13 mM
  Free [NAD^+]/[NADH] mitochochondria from αKGxNH4^+/Glut: 0.80 ± 0.17
  Free [NAD^+]/[NADPH] cytosol from αKGxCO2/IsoCit: 0.026 ± 0.003
[3]; rat brain, 14 days ketone ester diet, mean ± SEM, cytosolic pH assumed 7.2
  Free [NAD^+]/[NADH] cytosol from Lactate/Pyruvate: 357 ± 27
[3]; [12]
  Phosphorylation Potential from Kg + g (Eqn 1): 38,100 ± 3,390 ^a, b M^−1
  ΔG′ ATP: −59.6 ± 0.2 ^a, b kJ/mol
[4]
  food consumption compared with starch or fat diets: consume less food
  weight gain compared with starch or fat diets: gain less weight
[5]; 14 days
  malonyl CoA levels in the brain compared with other diets: higher
[5]; [13]
  Acetyl CoA: 6.43 ± 0.53 µM
  Fumarate: 0.0745 ± 0.0058 μmoles/g wet weight
  Isocitrate: 0.0093 ± 0.008 μmoles/g wet weight
  L-Malate: 0.181 ± 0.013 μmoles/g wet weight
  Succinate: 0.0864 ± 0.0033 μmoles/g wet weight
  Succinyl CoA: 0.910 ± 0.207 µM
  α-ketoglutarate: 0.140 ± 0.008 μmoles/g wet weight
[5]; 14 days ketone ester diet, mean ± SEM, calculated
  Calc Oxaloacetate: 0.0026 ± 0.0004 μmoles/g wet weight
[5]; 14 days ketone ester diet, mean ± SEM, n=6 to 8
  Citrate: 0.222 ± 0.010 μmoles/g wet weight
[5]; 14 days ketone ester diet, mean ± SEM, p < 0.05 between ketone ester and starch
  Malonyl CoA: 1.26 ± 0.13 ^a μM
[6]; end of the 66-day test
  fat pad weight compared with Western or carbohydrate diet: significantly lower
  fat to body weight compared with other diets: significantly lower
[6]; rats, monoester diet (30% of kilocalories), calorie-controlled, 66 days, n = 20
  Final body weight: 213 ± 5 g
[6]; [14]
  Heart to body weight: 0.29 ± 0.01%
  Heart weight: 0.64 ± 0.02 g
[6]; rats, monoester diet, 66 days, n = 20, *P < 0.05
  Epididymal fat: 1.48 ± 0.2* g
[6]; rats, monoester diet, 66 days, n = 20, *P < 0.05, in % (unit assumed)
  Epididymal fat to body weight: 0.69 ± 0.1*
[7]; female rats
  total amount of weight gained compared with CHOD and NHD groups: significantly less
  feed intake during days 22 to 29: 175 ± 12 g
  body weight on day 28: 240 ± 13 g
[7]; male rats
  total amount of weight gained compared with CHOD and NHD groups: significantly less
  feed intake during days 22 to 29: 239 ± 17 g
  body weight on day 28: 390 ± 26 g
[8]
  blood levels of (3R)-hydroxybutyrate: measurably raised
[9]; first seven days
  daily food intake compared with carbohydrate and Western diets (FIG. 2): ate less food; also recorded: consistently reduced
[9]; first six days
  daily body weight compared with carbohydrate and Western diets (FIG. 1): Significantly reduced; also recorded: lost more weight
[10]
  CART-positive cell bodies in VMH, ARC and ME areas of the hypothalamus (FIG. 7): highest numbers
[10]; rat hypothalamus
  CART positive cell bodies in the PVN, compared to fat and carbohydrate diets (FIGS. 6, 8, 9): highest level; also recorded: more CART; also recorded: significantly greater number; also recorded: highest density
